Like-named read-outs stand apart in the source and are kept apart here.
Tests used:
[1] = test system: human Kupffer-HepatoPac™ cultures; format: cell-based
Procedure: Cryopreserved human hepatocytes, cryopreserved human Kupffer cells and 3T3 J2 mouse fibroblasts were used in the manufacturing of the co-culture platform. Cryopreserved hepatocyte vials were thawed in a 37° C. water bath for 90-120 seconds followed by dilution in 50 mL of pre-warmed percoll-based hepatocyte density sedimentation medium (p=1.06). The cell suspension was spun at 50×g for 5 minutes. The supernatant was discarded, cells were resuspended in hepatocyte culture media (HCM) (Hepregen Corporation, Medford, Mass.) and viability was assessed using trypan blue exclusion (typically 80-95%). Liver-derived non-parenchymal cells, as judged by their size (˜10 μm in diameter) and morphology (non-polygonal), were consistently found to be less than 1% in these preparations. […] Kupffer cells were gently rocked into suspension and evaluated for viability via Trypan Blue exclusion. […]
Cytotoxicity was assessed by evaluation of cellular ATP content while hepatocyte metabolic competence was assessed by urea production. […] The reaction is based on the acid catalyzed condensation of urea with diacetylmonoxime in the presence of thiosemicarbazide to yield a red purple chromogen that is read spectrophotometrically. The cellular ATP content was measured in cell lysates using the Cell Titer-Glo luminescent kit from Promega (Madison, Wis.). […]

mouse = settings: cited from earlier work; for Effect on TVX/LPS toxic response: in vivo mouse model, Shaw et al.
[2] = test system: human Kupffer cell-treated HepatoPac™ model; test: Chronic toxicity platform, nine day treatment, cellular ATP content; format: cell-based; settings: for Toxicity in the presence of LPS-stimulated Kupffer cells: 50 ng/ml LPS; for Toxicity following nine days of compound dosing: all treatment conditions (HepatoPac or Kupffer cell-treated, +/- LPS)
Procedure: Chronic toxicity of various compounds suspected to be immunoreactive was evaluated with the human Kupffer cell-treated HepatoPac™ model (hepatocyte:Kupffer cell ratio of 1:0.4). Following a nine day treatment, compound toxicity was assessed as a function of cellular ATP content. TVX was used as a positive control. […] On day 7, cryopreserved unmatched Kupffer cells were added to the cultures. The cultures were dosed with compounds on culture Day 8 (hereby referred to as Dosing Day 0). On Dosing Day 1, LPS was added to the culture media at a final concentration of 50 ng/ml. On Dosing Day 3, 10 μl of supernatant was removed from cultures for urea analysis and replaced with an additional dose of the test compound. Similarly, supernatant was collected and cultures were re-dosed on Dosing Days 5 and 7. On Dosing Day 9, supernatant was collected and the cellular ATP content of the cultures was assessed (Promega Cell Titer Glo). Urea secretion of hepatocytes was quantified for the time-points of Dosing Day […], 5, 7, and 9 (data not shown).

[3] = test system: Human HepatoMune™ co-cultures; test: cells
Procedure: Hepatocytes were seeded on micropatterned collagen plates on Day 0. On Day 1, 3T3 fibroblasts were added to the cultures. Human HepatoPac® co-cultures were allowed to stabilize functionally for 7 days in serum-supplemented medium. Human Kupffer cells (from unmatched donors) were seeded onto the hepatocyte cocultures on Day 7 of culture at a hepatocyte to Kupffer cell ratio of 10:4. […] Cell lysates from each treatment group were collected on days 11 and 14 of culture for assessment of drug-induced effects on cytotoxicity.

[4] = test system: rat Kupffer-HepatoPac™ cultures; format: cell-based
Procedure: Cytotoxicity was assessed by evaluation of cellular ATP content while hepatocyte metabolic competence was assessed by urea production. Production of urea, a liver-specific function, was assayed in culture media using the Stanbio kit according to manufacturer's directions. The reaction is based on the acid catalyzed condensation of urea with diacetylmonoxime in the presence of thiosemicarbazide to yield a red purple chromogen that is read spectrophotometrically. The cellular ATP content was measured in cell lysates using the Cell Titer-Glo luminescent kit from Promega (Madison, Wis.).
HepatoPac™ co-cultures were first allowed to stabilize functionally in serum-supplemented media for a 7-day period. Species-matched Kupffer cells were added to human and rat HepatoPac™ at multiple ratios (to mimic both the normal and inflamed state of the liver). To mimic the physiological state, human and rate Kupffer cells were added at hepatocyte:Kupffer cell ratios of 1:0.1 and 1:0.2, respectively. To mimic the inflamed state human Kupffer cells (at a ratio of 1:0.4 hepatocytes:Kupffer cells) or rat Kupffer cells (at a ratio of 1:0.5 hepatocytes:Kupffer cells) were then added to the cultures. On day 8 of culture, the cultures were treated with increasing concentrations of either Trovafloxacin or Levofloxacin (0-400 μM) in serum-free media. 24 hrs later, the cultures were stimulated with 50 ng/mL LPS. […]

TNF-α = TNF-α secretion in TVX/LPS-treated rat cultures with pentoxifylline; format: cell-based; settings: 5 mM pentoxifylline
Procedure: Cultures were treated with Trovafloxacin and 5 mM Pentoxifylline for 72 hours. After 24 hours of dosing, Kupffer cells were activated with 50 ng/ml of LPS.

[5] = test system: HepatoPac™-Kupffer cell co-cultures; test: IL-6 secretion after cytokine exposure of HepatoPac-Kupffer cell co-cultures; format: cell-based, human; settings: 2 or 4 day treatment
Procedure: (§1) Cultures received 2 or 4 day treatment with IL-2, IL-1B, TNF-α, or IL-6 in serum-free media after which cytokine levels were assayed in their supernatants, Cyp3A4 activity was determined using the P450-Glo Assay (Promega), total ATP was measured (Promega Cell-Titer Glo) and RNA was extracted (Qiagen Rneasy).
Cultures were exposed to IL-2, IL-1B and TNF-α and secretion of IL-6 into the culture supernatant was measured.

Procedure for CYP3A4: as §1
Standard human HepatoPac™ and Kupffer cell-treated HepatoPac™ (hepatocyte:Kupffer cell ratio of 1:0.4) cultures were treated with the inflammatory cytokine IL-1B for 4 days. Sensitivity to IL-1B was measured as a function of Cyp3A4 activity repression. Following 4 days of IL-1B treatment, cytokines were removed and cultures were allowed to recover for 6 days.

N[C@@H]1[C@H]2CN(c3nc4c(cc3F)c(=O)c(C(=O)O)cn4-c3ccc(F)cc3F)C[C@@H]12 [TVX, trovafloxacin]
TVX toxicity on addition of TNF-α [1]: potentiates TVX toxicity
Toxicity under LPS-induced inflammatory stress (mouse; mouse, in vivo): toxic
Toxicity in the presence of LPS-stimulated Kupffer cells ([2]; 9-day treatment): increased toxicity
Toxicity following nine days of compound dosing [2]: toxicity in all treatment conditions was observed

CN(C)CCCN1c2ccccc2Sc2ccc(Cl)cc21 [chlorpromazine]
IC50 ([3]; read-out: IC50 (concentration at which 50% of the cells are dead), absence of LPS): 29 µM
IC50 ([3]; read-out: IC50 (concentration at which 50% of the cells are dead), presence of 50 ng/ml LPS): 17 µM

O=C(O)Cc1ccccc1Nc1c(Cl)cccc1Cl [diclofenac]
LPS-mediated toxicity after 3-day treatment ([2]; 3-day treatment (data not shown)): did not result in increased LPS-mediated toxicity
Toxicity in the presence of LPS-stimulated Kupffer cells ([2]; 9-day treatment): increased toxicity

CC(=O)N1CCN(c2ccc(OCC3COC(Cn4ccnc4)(c4ccc(Cl)cc4Cl)O3)cc2)CC1 (stereo not drawn) [ketoconazole]
Difference in TC50 between treatment groups ([2]; 9-day treatment): no significant difference
Toxicity following nine days of compound dosing [2]: toxicity in all treatment conditions was observed

C[C@H]1COc2c(N3CCN(C)CC3)c(F)cc3c(=O)c(C(=O)O)cn1c23 [levofloxacin]
Toxicity (cellular ATP content) [4]: not toxic

CC(=O)CCCCn1c(=O)c2c(ncn2C)n(C)c1=O [pentoxifylline]
Effect on TNF-α secretion (TNF-α): significantly decreased
Effect on TVX/LPS toxic response (mouse): toxicity abrogation
Effect on TVX/LPS-induced HepatoPac toxicity ([4]; 5 mM pentoxifylline, 72 hours, 50 ng/ml LPS after 24 hours): significantly decreased

IL-1B: inflammatory cytokine
CYP3A4 expression (CYP3A4): Repression of CYP3A4 expression
Cyp3A4 activity (CYP3A4): dose-dependent and Kupffer cell-enhanced repression
Time Cyp3A4 activity remained repressed after removal of IL-1B (CYP3A4; human, 96 h): 4 days
IL-6 secretion into the culture supernatant [5]: causes IL-6 release

IL-6: cytokine
Cyp3A4 activity (CYP3A4): maintains repression

TNF-α
IL-6 secretion into the culture supernatant [5]: no effect

etanercept
Effect on TVX/LPS toxic response (mouse): toxicity abrogation

Reference: patent US20160363584A1, “SYSTEMS AND METHODS FOR STUDYING INFLAMMATION-DRUG INTERACTIONS” (Hepregen Corporation, priority 2012, published 2016)
